According to US20240009143A1, “EXTRACTION OF SHIKONIN FROM ARNEBIA DECUMBENS ROOTS AND USE OF SHIKONIN DERIVATIVES FOR TREATING ULCERS” (KUWAIT UNIVERSITY, priority 2022, published 2024):

Test system: Heliobacter pylori
Assay: In vitro testing on H. pylori
Format: cell-based
Conditions: dose of 0.06 mg
Procedure: The biological activity of the 4 shikonin derivatives were tested against 2 microorganisms Heliobacter pylori (H. pylori or HP) and Candida albicans (C. albicans).

SMILES	inhibition associated with H. pylori
CC(=O)O[C@H](CC=C(C)C)C1=CC(=O)c2c(O)ccc(O)c2C1=O [compound D, acetylshikonin]	41.6%
CC(C)=CC[C@@H](O)C1=CC(=O)c2c(O)ccc(O)c2C1=O [compound E, shikonin]	41.6%
